Test results: US20140045724A1, “FORMULATION SCREENING METHODS, APPARATUSES FOR PERFORMING SUCH METHODS AND FORMULATIONS FORMED BY SUCH METHODS” (priority 2012, published 2014)

Assay: Kinetic gradient concentration study in water
Format: physicochemical
Conditions: CBZ gradient 0.01-0.64 w/v %
Method: CBZ-Ethanol solution was dispensed into 10 columns of wells in a 96-well microplate as follows: row A (80 μL @ 1 mg/mL; 80 μg API); row B (100 μL @ 2 mg/mL; 200 μg); row C (100 μL @ 4 mg/mL; 400 μg); row D (100 μL @ 6 mg/mL; 600 μg); row E (100 μL @ 8 mg/mL; 800 μg); row F (100 μL @ 20 mg/mL; 2 mg); row G (2×100 μL @ 20 mg/mL; 4 mg); row H (4×100 μL @ 20 mg/mL; 8 mg). Thus, a first-pass filling of the wellplate was conducted. The wellplate was placed on a centrivap and the solvent stripped at ambient temperature for ˜4 hours. The wells in rows G and H were refilled with CBZ solution, and the solvent stripped at ambient temperature for ˜1 hour, resulting in a net CBZ charge to rows G and H of 4 mg per well. This procedure was repeated twice for row H, resulting in a net CBZ charge of 8 mg per well. […] To the wells in columns 1 through 10 were charged the appropriate excipient, surfactant, and HPBCD solutions (4 mg/mL; 25 or 80 μL 5% Ethanol solution) that were previously determined in Example 1. Additional 5% Ethanol solvent was added to the wells to give 200 μL total liquid. The solvent (200 μL) was also charged to wells in column 11 (API control) and 12 (solvent only). […]
The microplate was inverted before scanning through the film on a UV-VIS microplate reader (600-900 nm, 2-nm step size; transmittance). […]

kinetically stable API concentration, sonicated microplate (sonicated wellplate): 0.02 w/v %
kinetically stable API concentration, unsonicated microplate (unsonicated wellplate): 0.02 w/v %
Compound: NC(=O)N1c2ccccc2C=Cc2ccccc21 [control, carbamazepine]
